Source: patent EP3495350B1, “COMPOUND INHIBITING FORMATION OF C-MYC/MAX/DNA COMPLEX” (National Cancer Center, priority 2016, dated 2018)

Assays:
[1] = tested on: UM-UC-3; experiment: Cell based assay, cell viability (CellTiter-Glo), UM-UC-3; details: Homo sapiens, UMUC3; 72 hours, 0 to 2 µM; read-out: cell based assay cell line 4 UM-UC-3 IC50
Experimental: (§1) Commercially available bladder cancer cell lines were treated with trypsin-EDTA and seeded in each well of a 96 well plate, followed by incubation for 24 hours. After incubation, candidate compounds were added to each well at a final concentration of 0 to 2 µM. The compound-treated cells were further incubated for 72 hours. Cell viability was measured using an ATP detection method (CellTiter-Glo Luminescent Cell Viability Assay, Promega).
(§2) The selectivity of the compounds of the present disclosure to cancer cells was evaluated in the same manner as described in "2. Cell based assay".

[2] = tested on: MBT-2; experiment: Cell based assay, cell viability (CellTiter-Glo), MBT-2; details: 72 hours, 0 to 2 µM; read-out: cell based assay cell line 1 MBT-2 IC50
Experimental: as §1, §2

[3] = tested on: KU19-19; experiment: Cell based assay, cell viability (CellTiter-Glo), KU19-19; details: Homo sapiens, KU-19-19; 72 hours, 0 to 2 µM; read-out: cell based assay cell line 2 KU19-19 IC50
Experimental: as §1, §2

[4] = tested on: 253J; experiment: Cell based assay, cell viability (CellTiter-Glo), 253J; details: Homo sapiens; 72 hours, 0 to 2 µM; read-out: cell based assay cell line 3 253J IC50
Experimental: as §1, §2

CC(=O)c1c([S+]([O-])Cc2ccc(Cl)cc2)[nH]c2c(Br)ccc(Cl)c2c1=O (stereo not shown) [Compound 11, 3-acetyl-8-bromo-5-chloro-2-((4-chlorobenzyl)sulfinyl)quinolin-4(1H)-one]
IC50 [1]: 1490 nM | IC50 [2]: > 2000 nM | IC50 [3]: > 2000 nM | IC50 [4]: 1410 nM

CC(=O)c1c([S+]([O-])c2ccccc2)[nH]c2c(Br)ccc(Cl)c2c1=O (stereo not shown) [Compound 13, 3-acetyl-8-bromo-5-chloro-2-(phenylsulfinyl)quinolin-4(1H)-one]
IC50 [1]: > 2000 nM | IC50 [2]: > 2000 nM | IC50 [3]: > 2000 nM | IC50 [4]: > 2000 nM

COc1ccccc1[S+]([O-])c1[nH]c2c(Br)ccc(Cl)c2c(=O)c1C(C)=O (stereo not shown) [Compound 15, 3-acetyl-8-bromo-5-chloro-2-((2-methoxyphenyl)sulfinyl)quinolin-4(1H)-one]
IC50 [1]: > 2000 nM | IC50 [2]: > 2000 nM | IC50 [3]: 1910 nM | IC50 [4]: > 2000 nM

CC(=O)c1c([S+]([O-])c2ccc(Br)cc2)[nH]c2c(Br)ccc(Cl)c2c1=O (stereo not shown) [Compound 17, 3-acetyl-8-bromo-2-((4-bromophenyl)sulfinyl)-5-chloroquinolin-4(1H)-one]
IC50 [1]: > 2000 nM | IC50 [2]: > 2000 nM | IC50 [3]: > 2000 nM | IC50 [4]: > 2000 nM

CC(=O)c1c([S+]([O-])C(C)c2ccccc2)[nH]c2c(Br)ccc(Cl)c2c1=O (stereo not shown) [Compound 26, 3-acetyl-8-bromo-5-chloro-2-((1-phenylethyl)sulfinyl)quinolin-4(1H)-one]
IC50 [1]: > 2000 nM | IC50 [2]: > 2000 nM | IC50 [3]: > 2000 nM | IC50 [4]: > 2000 nM

CC(=O)c1c([S+]([O-])Cc2cccc(C#N)c2)[nH]c2c(Br)ccc(Cl)c2c1=O (stereo not shown) [Compound 28, 3-(((3-acetyl-8-bromo-5-chloro-4-oxo-1,4-dihydroquinolin-2-yl)sulfinyl)methyl)benzonitrile]
IC50 [1]: 790 nM | IC50 [2]: 790 nM | IC50 [3]: 1460 nM | IC50 [4]: 740 nM

CC(=O)c1c([S+]([O-])Cc2ccc(F)cc2F)[nH]c2c(Br)ccc(Cl)c2c1=O (stereo not shown) [Compound 29, 3-acetyl-8-bromo-5-chloro-2-((2,4-difluorobenzyl)sulfinyl)quinolin-4(1H)-one]
IC50 [1]: 1130 nM | IC50 [2]: 1200 nM | IC50 [3]: 1680 nM | IC50 [4]: 960 nM

CC(=O)c1c([S+]([O-])Cc2ccc(F)c(Cl)c2)[nH]c2c(Br)ccc(Cl)c2c1=O (stereo not shown) [Compound 31, 3-acetyl-8-bromo-5-chloro-2-((3-chloro-4-fluorobenzyl)sulfinyl)quinolin-4(1H)-one]
IC50 [1]: 1020 nM | IC50 [2]: 1280 nM | IC50 [3]: 1450 nM | IC50 [4]: 890 nM

CC(=O)c1c(S(=O)(=O)Cc2ccccc2)[nH]c2c(Br)ccc(Cl)c2c1=O [Compound 34, 3-acetyl-2-(benzylsulfonyl)-8-bromo-5-chloroquinolin-4(1H)-one]
IC50 [1]: > 2000 nM | IC50 [2]: > 2000 nM | IC50 [3]: > 2000 nM | IC50 [4]: > 2000 nM

CC(=O)c1c([S+]([O-])Cc2cc(Cl)ccc2Cl)[nH]c2c(Br)ccc(Cl)c2c1=O (stereo not shown) [Compound 44, 3-acetyl-8-bromo-5-chloro-2-((2,5-dichlorobenzyl)sulfinyl)quinolin-4(1H)-one]
IC50 [1]: 970 nM | IC50 [2]: 1150 nM | IC50 [3]: 1270 nM | IC50 [4]: 1240 nM

CC(=O)c1c([S+]([O-])Cc2cc(F)cc(F)c2)[nH]c2c(Br)ccc(Cl)c2c1=O (stereo not shown) [Compound 46, 3-acetyl-8-bromo-5-chloro-2-((3,5-difluorobenzyl)sulfinyl)quinolin-4(1H)-one]
IC50 [1]: 1220 nM | IC50 [2]: 1840 nM | IC50 [3]: 1800 nM | IC50 [4]: 1960 nM

CC(=O)c1c([S+]([O-])Cc2cccc(I)c2)[nH]c2c(Br)ccc(Cl)c2c1=O (stereo not shown) [Compound 48, 3-acetyl-8-bromo-5-chloro-2-((3-iodobenzyl)sulfinyl)quinolin-4(1H)-one]
IC50 [1]: 1820 nM | IC50 [2]: > 2000 nM | IC50 [3]: > 2000 nM | IC50 [4]: > 2000 nM

CC(=O)c1c([S+]([O-])Cc2cccc(F)c2)[nH]c2c(Br)ccc(Cl)c2c1=O (stereo not shown) [Compound 50, 3-acetyl-8-bromo-5-chloro-2-((3-fluorobenzyl)sulfinyl)quinolin-4(1H)-one]
IC50 [1]: 1260 nM | IC50 [2]: 1580 nM | IC50 [3]: 1690 nM | IC50 [4]: 1430 nM

CC(=O)c1c([S+]([O-])Cc2cc(C)on2)[nH]c2c(Br)ccc(Cl)c2c1=O (stereo not shown) [Compound 51, 3-acetyl-8-bromo-5-chloro-2-(((5-methylisoxazol-3-yl)methyl)sulfinyl)quinolin-4(1H)-one]
IC50 [1]: 630 nM | IC50 [2]: 760 nM | IC50 [3]: 1260 nM | IC50 [4]: 1130 nM

CC(=O)c1c([S+]([O-])Cc2ccccc2)nc2c(Br)ccc(Cl)c2c1O (stereo not shown) [Compound 53, 1-(2-(benzylsulfinyl)-8-bromo-5-chloro-4-hydroxyquinolin-3-yl)ethan-1-one]
IC50 [1]: > 2000 nM | IC50 [2]: > 2000 nM | IC50 [3]: > 2000 nM | IC50 [4]: > 2000 nM

COc1cccc(C[S+]([O-])c2[nH]c3c(Br)ccc(Cl)c3c(=O)c2C(C)=O)c1 (stereo not shown) [Compound 55, 3-acetyl-8-bromo-5-chloro-2-((3-methoxybenzyl)sulfinyl)quinolin-4(1H)-one]
IC50 [1]: 1580 nM | IC50 [2]: > 2000 nM | IC50 [3]: 1380 nM | IC50 [4]: 1330 nM

CC(=O)c1c([S+]([O-])Cc2ccc(SC(F)(F)F)cc2)[nH]c2c(Br)ccc(Cl)c2c1=O (stereo not shown) [Compound 56, 3-acetyl-8-bromo-5-chloro-2-((4-((trifluoromethyl)thio)benzyl)sulfinyl)quinolin-4(1H)-one]
IC50 [1]: 1250 nM | IC50 [2]: 1180 nM | IC50 [3]: 940 nM | IC50 [4]: 1110 nM

CC(=O)c1c([S+]([O-])Cc2ccc([N+](=O)[O-])cc2)[nH]c2c(Cl)ccc(Cl)c2c1=O (stereo not shown) [Compound 57, 3-acetyl-5,8-dichloro-2-((4-nitrobenzyl)sulfinyl)quinolin-4(1H)-one]
IC50 [1]: > 2000 nM | IC50 [2]: > 2000 nM | IC50 [3]: 1830 nM | IC50 [4]: 1920 nM

CC(=O)c1c([S+]([O-])Cc2ccccc2C#N)[nH]c2c(Br)ccc(Cl)c2c1=O (stereo not shown) [Compound 58, 2-(((3-acetyl-8-bromo-5-chloro-4-oxo-1,4-dihydroquinolin-2-yl)sulfinyl)methyl)benzonitrile]
IC50 [1]: 1220 nM | IC50 [2]: 860 nM | IC50 [3]: 920 nM | IC50 [4]: 920 nM

COc1cc(C[S+]([O-])c2[nH]c3c(Br)ccc(Cl)c3c(=O)c2C(C)=O)cc(OC)c1 (stereo not shown) [Compound 59, 3-acetyl-8-bromo-5-chloro-2-((3,5-dimethoxybenzyl)sulfinyl)quinolin-4(1H)-one]
IC50 [1]: 1370 nM | IC50 [2]: 1300 nM | IC50 [3]: 1230 nM | IC50 [4]: 1140 nM

CC(=O)c1c([S+]([O-])Cc2ccc(C(C)(C)C)cc2)[nH]c2c(Br)ccc(Cl)c2c1=O (stereo not shown) [Compound 60, 3-acetyl-8-bromo-2-((4-(tert-butyl)benzyl)sulfinyl)-5-chloroquinolin-4(1H)-one]
IC50 [1]: > 2000 nM | IC50 [2]: > 2000 nM | IC50 [3]: 1560 nM | IC50 [4]: 1710 nM

CC(=O)c1c([S+]([O-])Cc2ccc(C(=O)c3ccccc3)cc2)[nH]c2c(Br)ccc(Cl)c2c1=O (stereo not shown) [Compound 63, 3-acetyl-2-((4-benzoylbenzyl)sulfinyl)-8-bromo-5-chloroquinolin-4(1H)-one]
IC50 [1]: > 2000 nM | IC50 [2]: > 2000 nM | IC50 [3]: > 2000 nM | IC50 [4]: > 2000 nM
